Values of other authors, collected in patent US9255091B2, “Benzothiazole-based pyridinium compounds” (The University of Montana, priority 2011, dated 2016).

Biological target: AChE P-site (Homo sapiens (Human), UniProt P22303)
Conditions: binds selectively to the AChE P-site; read-out: equilibrium dissociation constant

Chain of AChE P-site (P22303 32-614 limits assumed): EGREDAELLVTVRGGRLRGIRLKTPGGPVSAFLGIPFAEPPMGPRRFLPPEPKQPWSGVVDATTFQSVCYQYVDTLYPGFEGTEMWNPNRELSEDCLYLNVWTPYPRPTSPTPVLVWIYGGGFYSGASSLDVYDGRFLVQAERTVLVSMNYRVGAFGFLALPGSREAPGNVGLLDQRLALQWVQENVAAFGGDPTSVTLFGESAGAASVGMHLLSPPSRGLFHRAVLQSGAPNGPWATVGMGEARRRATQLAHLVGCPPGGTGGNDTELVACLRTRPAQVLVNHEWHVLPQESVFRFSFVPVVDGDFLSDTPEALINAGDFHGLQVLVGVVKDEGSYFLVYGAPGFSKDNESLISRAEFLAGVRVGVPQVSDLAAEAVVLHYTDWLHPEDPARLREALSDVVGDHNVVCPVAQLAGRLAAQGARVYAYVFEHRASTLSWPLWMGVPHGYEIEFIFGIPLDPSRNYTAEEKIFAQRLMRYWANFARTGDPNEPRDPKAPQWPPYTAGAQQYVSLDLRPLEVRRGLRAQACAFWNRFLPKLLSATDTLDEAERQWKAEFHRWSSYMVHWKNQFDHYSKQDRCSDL

Cc1ccc2c(c1)sc(-c1ccc(N(C)C)cc1)[n+]2C [Thioflavin T]
Kd: 1 µM
